Measured values: US20190374647A1, “STABLE LIPOSOMES FOR DRUG DELIVERY” (YISSUM RESEARCH DEVELOPMENT COMPANY OF THE HEBREW …, priority 2012, published 2019)
Structures can show the parent of a compound that is named as a salt. Marks after values point to notes of the source that are not given here.

Key:
[1] = Blood levels of doxorubicin in mice after single I.V. dose; type: in vivo, Balb/c mice; conditions: after 48 hours, FIG. 3
Experimental: At defined time-points (see Table 8 below, for composition of each formulation see Tables 5 and 6), mice of each group were euthanized with CO2 and terminal blood was withdrawn from the retro-orbital sinus and collected in labeled K3EDTA tubes. The blood samples were then immediately subjected to plasma separation procedure (4000 rpm for 10 minutes at 4° C.). The plasma, red blood cells fraction and whole blood of each mouse has been collected in labeled CryoTubes and stored at −80° C. pending analysis. Doxorubicin was extracted from the samples as follows. […] From the upper phase, 100 μl of the plasma diluted in A-IPA were diluted in 900 μl mobile phase for analysis and the contents of extracted doxorubicin was determined using fluorescence HPLC (as described in Gabizon et al. (1993) Pharm. Research 10(5):703-708).

[2] = Doxorubicin solubility in ammonium salt solutions; type: physicochemical
[3] = system: human OVCAR-3 ovarian adenocarcinoma cells; assay: OVCAR-3 ovarian adenocarcinoma xenograft, anti-tumor efficacy; type: in vivo, athymic nude mice
Experimental: Female athymic nude mice were inoculated subcutaneously in the left flank with a suspension of 5×10^6 human OVCAR-3 ovarian adenocarcinoma cells (200 µL injection volume) and monitored for tumor growth. Animals were selected, randomized into four treatment groups (n=8 per group) with a balanced tumor size of ˜100 mm^3 according to the study design (Table 9) below.
(§1) G1 animals served as vehicle control and received 5 ml/kg saline. 2, G5 and G6 animals were treated with 8 mg/kg doxorubicin HCl, LC3-PLDMS-2 (PLMDS-2 are liposomes containing 250 mM ammonium methanesulfonate (MS) and remote loaded with doxorubicin (group 5 in the experiment), LC4_PLDMS-5 are liposomes containing 500 mM ammonium methanesulfonate (MS) and remote loaded with doxorubicin (group 6 in the experiment) (respectively, given intravenously (5 mL/kg dose volume) once weekly for 2 consecutive weeks. Body weight, general clinical observations and tumor size were monitored throughout the experimental period. Experimental groups were terminated when median tumor volume reached 2500 mm^3. Endpoint parameters such as body weight change, % ILS, Median tumor volume, TGI, % T/C, RTV, LCK, Tumor growth delay, TVDT and TVDTD were calculated. Tumor volumes were measured twice weekly using a digital vernier caliper recording length (L=longest axis) and width (W=shortest axis), and volume was calculated in mm^3 as L×W^2/2. Groups reaching a median tumor volume of 2500 mm^3 were terminated and the date of termination was used as the date of death for the purpose of survival calculations. The following parameters were calculated: median survival time (MST), percentage increased life span (% ILS) and median tumor volume (TV). Other measured, including median TV change; median tumor growth inhibition (TGI); % T/C; relative tumor volume (RTV); log cell kill (LCK); tumor growth delay; tumor volume doubling time (TVDT); and tumor volume doubling time delay (TVDTC), were derived from the median tumor volume measurements. Tumor growth regression was also plotted.
(§2) Mice bearing growing tumor were selected and randomized into 4 groups containing 8 animals in each based on a mean tumor size of ˜100 mm3. G1 animals served as vehicle control and received 5 ml/kg saline whereas G2, G5 and G6 animals received Doxorubicin HCl, LC3-PLDMS-2 or LC4-PLDMS-5, respectively, at a dose of 8 mg/kg. All the animals were dosed intravenously at the dose volume of 5 ml/kg weekly once for two weeks. Body weight, general clinical observations and tumor volume parameters were recorded during the experimental period. Groups reaching median tumor volume of 2500 mm^3 were terminated.
For preparation and administration of reference and test item, all the test items are ready to use formulations. The strength of test formulation is 2 mg/ml of doxorubicin HCl in sterile 5 ml vial. 2 ml of reference or test item formulation (i.e. Doxorubicin HCl, LC3-PLDMS-2 and LC4-PLDMS-5) was diluted to 0.5 ml normal saline to achieve 1.6 mg/ml. 100 μL of final test formulation was injected intravenously to 20 g of mouse to achieve the 8 mg/kg dose. Group G1 animals received normal saline at the dose volume of 5 ml/kg.

[4] = OVCAR-3 xenograft study, tolerability (body weight, clinical signs); type: in vivo
Experimental: as §1, §2
The body weight of each mouse was recorded at the time of randomization, on alternate days during dosing period and post-dosing period until the end of the study.

[5] = 8 mg/kg i.v. once weekly for 2 weeks

COc1cccc2c1C(=O)c1c(O)c3c(c(O)c1C2=O)C[C@@](O)(C(=O)CO)C[C@@H]3O[C@H]1C[C@H](N)[C@H](O)[C@H](C)O1 [Doxorubicin HCl]
drug levels in blood in comparison to Doxil® [1]: below limit of detection
higher solubility of the methanesulfonate form versus ammonium sulfate [2]: at least 35 fold
solubility of doxorubicin in 250 mM ammonium alkyl or aryl sulfonate relative to 250 mM ammonium sulfate [2]: approximately 30 fold
precipitation in the presence of alkyl or aryl sulfonate ions ([2]; 70 mM): did not precipitate
concentration at which doxorubicin precipitates ([2]; in the presence of sulfate ions (ammonium sulfate)): less than 2 mM
% Increased Life Span (% ILS) [3, 5]: 21.2%
Mean TVDT [3, 5]: 7 days
Median Survival Time (MST) [3, 5]: 63
median life span [3, 5]: 63 days
Log Cell Kill Value ([3]; 8 mg/kg i.v. once weekly for 2 weeks, derived from median tumor volume): 0.40
Median Tumor Volume ([3]; Day 22): 110.9 mm^3
Median Tumor Volume ([3]; Day 24): 128.6 mm^3
Median Tumor Volume ([3]; Day 26): 145.8 mm^3
Median Tumor Volume ([3]; Day 28): 173.8 mm^3
Median Tumor Volume ([3]; Day 30): 194.7 mm^3
Median Tumor Volume ([3]; Day 32): 215.5 mm^3
Median Tumor Volume ([3]; Day 34): 252.9 mm^3
Median Tumor Volume ([3]; Day 36): 311.1 mm^3
Median Tumor Volume ([3]; Day 38): 379.4 mm^3
Median Tumor Volume ([3]; Day 40): 453.8 mm^3
Median Tumor Volume ([3]; Day 42): 550.9 mm^3
Median Tumor Volume ([3]; Day 44): 673.4 mm^3
Median Tumor Volume ([3]; Day 46): 802.4 mm^3
Median Tumor Volume ([3]; Day 48): 1006.1 mm^3
Median Tumor Volume ([3]; Day 50): 1218.8 mm^3
Median Tumor Volume ([3]; Day 52): 1430.3 mm^3
Median Tumor Volume ([3]; Day 56): 1799.5 mm^3
Median Tumor Volume ([3]; Day 59): 2192.6 mm^3
Median Tumor Volume ([3]; Day 63): 2699.3 mm^3
Mean Body Weight ([4]; Day 22): 22.4 g
Mean Percentage Change in Body Weight ([4]; Day 22): 0.0%
Mean Body Weight ([4]; Day 24): 22.1 g
Mean Percentage Change in Body Weight ([4]; Day 24): −1.6%
Mean Body Weight ([4]; Day 26): 21.6 g
Mean Percentage Change in Body Weight ([4]; Day 26): −3.7%
Mean Body Weight ([4]; Day 28): 21.8 g
Mean Percentage Change in Body Weight ([4]; Day 28): −2.9%
Mean Body Weight ([4]; Day 30): 21.5 g
Mean Percentage Change in Body Weight ([4]; Day 30): −4.1%
Mean Body Weight ([4]; Day 32): 21.4 g
Mean Percentage Change in Body Weight ([4]; Day 32): −4.7%
Mean Body Weight ([4]; Day 34): 21.1 g
Mean Percentage Change in Body Weight ([4]; Day 34): −6.1%
Mean Body Weight ([4]; Day 36): 20.9 g
Mean Percentage Change in Body Weight ([4]; Day 36): −6.6%
Mean Body Weight ([4]; Day 38): 20.8 g
Mean Percentage Change in Body Weight ([4]; Day 38): −7.4%
Mean Body Weight ([4]; Day 40): 20.6 g
Mean Percentage Change in Body Weight ([4]; Day 40): −8.0%
Mean Body Weight ([4]; Day 42): 20.6 g
Mean Percentage Change in Body Weight ([4]; Day 42): −8.1%
Mean Body Weight ([4]; Day 44): 20.5 g
Mean Percentage Change in Body Weight ([4]; Day 44): −8.5%
Mean Body Weight ([4]; Day 46): 20.5* g
Mean Percentage Change in Body Weight ([4]; Day 46): −8.6%
Mean Body Weight ([4]; Day 48): 20.8* g
Mean Percentage Change in Body Weight ([4]; Day 48): −7.3%
Mean Body Weight ([4]; Day 50): 20.9* g
Mean Percentage Change in Body Weight ([4]; Day 50): −6.9%
Mean Body Weight ([4]; Day 52): 21.1* g
Mean Percentage Change in Body Weight ([4]; Day 52): −6.0%
Mean Body Weight ([4]; Day 56): 21.4 g
Mean Percentage Change in Body Weight ([4]; Day 56): −4.7%
Mean Body Weight ([4]; Day 59): 21.8 g
Mean Percentage Change in Body Weight ([4]; Day 59): −2.9%
Mean Body Weight ([4]; Day 63): 22.1 g
Mean Percentage Change in Body Weight ([4]; Day 63): −1.3%
maximum body weight loss ([4]; G2 on day 46, other groups on day 32 / 34 as printed): −8.6%
body weight gain by the end of experiment ([4]; mouse, in vivo): no body weight gain was observed
